Data taken from ChEMBL document CHEMBL1146631, “Design and synthesis of novel CCR3 antagonists” (Bioorg Med Chem Lett, 2003).

What was measured:
[1] = target: T1, C-C chemokine receptor type 3 (Homo sapiens, UniProt P51677); assay: Binding affinity was determined towards C-C chemokine receptor type 3 using [125I]-labeled eotaxin as radioligand
T1 sequence (P51677 whole entry): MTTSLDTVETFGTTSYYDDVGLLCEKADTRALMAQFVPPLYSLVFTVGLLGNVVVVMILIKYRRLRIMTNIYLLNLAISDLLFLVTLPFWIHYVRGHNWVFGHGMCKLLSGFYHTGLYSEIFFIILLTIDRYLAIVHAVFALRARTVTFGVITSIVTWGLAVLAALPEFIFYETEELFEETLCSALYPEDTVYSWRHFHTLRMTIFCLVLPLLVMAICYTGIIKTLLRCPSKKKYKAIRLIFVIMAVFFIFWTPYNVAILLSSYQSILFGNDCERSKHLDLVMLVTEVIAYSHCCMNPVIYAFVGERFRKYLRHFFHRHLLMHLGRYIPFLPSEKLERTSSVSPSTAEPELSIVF

[2] = target: T1, C-C chemokine receptor type 3; assay: Compound was tested for its ability to inhibit C-C chemokine receptor type 3 receptor
Rattus norvegicus = assay: Area under curve in rat by po administration at 0-24 hr; type: ADME, organism-based; design: time < 24 hr, route oral; conditions: in vivo
[3] = Half-life period in rat by iv administration; type: ADME, organism-based; conditions: in vivo
[4] = Volume of distribution in rat by iv administration; type: ADME, organism-based; conditions: in vivo
[5] = Plasma clearance in rat by iv administration; type: ADME, organism-based

SMILES	IC50 [1] [µM]	IC50 [2] [µM]	further results
C[C@H](O)[C@H](CN1C2CCC1CC(Cc1ccc(Cl)cc1)C2)NC(=O)Nc1cccc(S(C)(=O)=O)c1 (stereo partly drawn)	0.012	0.0044	AUC (Rattus norvegicus): 0.71 µg·h/mL
Cc1ccc(C(=O)NC(CC2CCN(Cc3ccc(C)c(C)c3)CC2)C(C)C)cc1 (stereo not drawn)	7.8		
Cc1ccc(C(=O)NC(CN2CCC(Cc3ccc(Cl)c(Cl)c3)CC2)C(C)C)cc1 (stereo not drawn)	0.5		
C[C@H](CN1C2CCC1CC(Cc1ccc(Cl)cc1)C2)NC(=O)Nc1cccc(S(C)(=O)=O)c1 (stereo partly drawn)	0.065	0.012	
Cc1ccc(C(=O)NC(CC2CCN(Cc3ccccc3)CC2)C(C)C)cc1 (stereo not drawn)	> 200		
COc1cc(NC(=O)NC(CC2CCN(Cc3ccc(Cl)c(Cl)c3)CC2)C(C)C)cc(OC)c1OC (stereo not drawn)	0.5		
Cc1ccc(C(=O)NC(CC2CCN(Cc3ccc(Cl)c(Cl)c3)CC2)C(C)C)cc1 (stereo not drawn)	1.7		
Cc1ccc(C(=O)NC(CC2CCC(Cc3ccc(Cl)c(Cl)c3)CC2)C(C)C)cc1 (stereo not drawn)	> 200		
COc1cc(NC(=O)N[C@H](C)CN2C3CCC2CC(Cc2ccc(Cl)cc2)C3)cc(OC)c1OC (stereo partly drawn)	0.011	0.0047	AUC (Rattus norvegicus): 0.28 µg·h/mL
Cc1ccc(C(=O)NC(CN2C3CCC2CC(Cc2ccc(Cl)c(Cl)c2)C3)C(C)C)cc1 (stereo not drawn)	1.8		half-life [3]: 3.5 h; Vd [4]: 30.1 L/kg; clearance [5]: 7.06 L/h/kg
COc1cc(NC(=O)N[C@@H](CN2C3CCC2CC(Cc2ccc(Cl)cc2)C3)[C@H](C)O)cc(OC)c1OC (stereo partly drawn)	0.0082	0.0024	AUC (Rattus norvegicus): 0.19 µg·h/mL
Cc1ccc(C(=O)NC(CC2CCN(Cc3ccc([N+](=O)[O-])cc3)CC2)C(C)C)cc1 (stereo not drawn)	8.5		
Cc1ccc(C(=O)NC(CN2CC3CCC2CC3Cc2ccc(Cl)c(Cl)c2)C(C)C)cc1 (stereo not drawn)	5.3		
